One compound from patent US8404851B2, “1,3,5-trisubstituted triazole derivative” (Janssen Pharmaceutica NV, priority 2007, dated 2013) can be followed below.

Series [1] addresses T1, hα7-wt nAChR (Homo sapiens, UniProt P36544).
T1 construct: expressed in transfected cells
In words: Whole-cell voltage-clamp recording, PAM activity with choline. The settings on record: qualitative kinetic properties, 1 mM choline, GH4C1 cells. In kind it is cell-based. Also noted: key: Type 1 compounds enhance the effect size of the current elicited by 1 mM choline but minimally alter the kinetics of the receptor.; Type 2 compounds enhance the effect size of the current elicited by 1 mM choline while reducing the rate and/or the extent of desensitization.; Type 3 compounds enhance the effect size of the current elicited by 1 mM choline. When tested at higher concentrations up to 10 μM they completely inhibit desensitization; Type 4 compounds allow for an initial desensitization of the receptor followed by a re-opening of the receptor during agonist application. On the procedure:
The compounds of the present invention are classified as type 1-4, based on qualitative kinetic properties, as determined by whole-cell voltage-clamp recordings. This classification is based on the effect of an α7 PAM compound, as described hereinbefore, on the signal elicited by an agonist application. In particular, said agonist is choline at a concentration of 1 mM. In a preferred experimental setting, said α7 PAM compound and choline are simultaneously applied to the cell, as described hereinafter. Desensitization as described hereinafter is the closure of the receptor upon activation during the application of the agonist in whole-cell voltage-clamp electrophysiology measurements seen as the reduction of the […] current after initial activation by the agonist.
The definition of the PAM types 1-4 is described hereinafter: • Type 1 compounds enhance the effect size of the current elicited by 1 mM choline but minimally alter the kinetics of the receptor. In particular, the rate and the extent of desensitization, elicited by the agonist, is not affected. […]
The compound of the present invention also has a potentiating effect on the response to choline when measured by whole-cell voltage clamp electrophysiology in GH4C1 cells stably over-expressing the human wild-type α7 receptor, as described hereinafter. […]

Series [2] deals with T1, hα7-wt nAChR. In words: Ca2+ flux imaging (FDSS), PAM activity with choline. It is filed as cell-based. The settings on record: hα7-wt nAChR-expressing GH4C1 cells; potentiation of choline 100 μM; compound 0.01 μM to 30 μM. The protocol:
Ca^2+ Flux Imaging (FDSS) […]
PAM activity was detected in real time by applying the compound to be tested to the loaded cells along with a α7 nicotinic receptor agonist during constant monitoring of the cellular calcium mobilization by fluorescence in a FDSS. […]
A control response to choline was calculated on each plate from the difference in peak in fluorescence in wells receiving either choline or assay buffer alone. […]
EC50 values (potency), maximal effect (% efficacy), and Hill slopes were estimated by fitting the sigmoidal equation to the data using GraphPad Prism (GraphPad Software, Inc., San Diego, Calif.). An EC50 (or pEC50) was determined as a concentration relating to half the maximal effect, when a clear sigmoidal curve with top plateau was obtained.
A general note: Calcium flux is commonly read through the fluorescence of an indicator in the cells.

As usually defined, the melting point is the temperature, or range, at which the solid turns liquid. In general, EC50 refers to the concentration at which the effect is half-maximal.

T1 sequence (P36544 23-502): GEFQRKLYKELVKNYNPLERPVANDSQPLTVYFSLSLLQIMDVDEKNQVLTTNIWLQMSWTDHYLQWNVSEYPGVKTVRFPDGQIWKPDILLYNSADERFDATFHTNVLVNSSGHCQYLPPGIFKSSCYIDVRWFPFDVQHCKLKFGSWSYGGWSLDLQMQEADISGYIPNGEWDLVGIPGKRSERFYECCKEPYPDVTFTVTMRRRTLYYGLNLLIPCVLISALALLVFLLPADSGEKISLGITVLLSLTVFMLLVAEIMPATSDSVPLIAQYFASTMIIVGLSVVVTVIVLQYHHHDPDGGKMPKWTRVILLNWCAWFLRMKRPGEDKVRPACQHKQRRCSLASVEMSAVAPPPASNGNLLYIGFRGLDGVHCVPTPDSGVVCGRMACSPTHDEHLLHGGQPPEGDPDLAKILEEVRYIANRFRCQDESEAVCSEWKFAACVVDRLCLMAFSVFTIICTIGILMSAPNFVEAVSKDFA

Turning to `CCNC(=O)Cn1nc(Nc2ccc3c(c2)OC(F)(F)O3)nc1-c1cc(C)nc(C)c1` [Compound E1, 2-[3-(2,2-Difluoro-benzo[1,3]dioxol-5-ylamino)-5-(2,6-dimethyl-pyridin-4-yl)-[1,2,4]-triazol-1-yl]-N-ethyl-acetamide], the melting point is 242.28 °C. In addition, on hα7-wt nAChR [1], the PAM_type was found to be 2. For the same compound, on hα7-wt nAChR [2], the EC50 was 0.309 µM.
